ChEMBL document CHEMBL1201862, “PubChem BioAssay data set” (2004)
Calls of active or inactive are those of the source.

What was measured:
Phospholipase A2 = Phospholipase A2 (Homo sapiens, UniProt P04054); format: functional;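 further: confirmatory dose-response counterscreen on phospholipase A2, testing hits that came from an ultra-high-throughput screen for ATG4B inhibitors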
Cysteine protease ATG4B = Cysteine protease ATG4B (Homo sapiens, UniProt Q9Y4P1); format: functional;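 further: Fluorescence-based dose-response confirmation assay measuring inhibition of ATG4B activity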
[1] = molecular target: T1, Sentrin-specific protease 8 (Homo sapiens, UniProt Q96LD8); assay: inhibition of sentrin protease 8 – biochemical, luminescence, set 2, SAR follow-up (AID 588601); format: functional
T1 sequence (Q96LD8 whole entry): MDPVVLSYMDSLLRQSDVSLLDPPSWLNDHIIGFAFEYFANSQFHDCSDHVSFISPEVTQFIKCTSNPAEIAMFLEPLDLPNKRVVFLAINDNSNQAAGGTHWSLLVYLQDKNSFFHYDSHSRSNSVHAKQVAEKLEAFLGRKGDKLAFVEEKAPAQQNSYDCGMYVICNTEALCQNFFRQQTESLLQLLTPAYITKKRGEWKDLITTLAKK

[2] = molecular target: T2, Sentrin-specific protease 7 (Homo sapiens, UniProt Q9BQF6); assay: inhibition of human SENP7 cleavage activity – biochemical, luminescence, set 2, SAR follow-up (AID 588600); format: functional
T2 sequence (Q9BQF6 whole entry): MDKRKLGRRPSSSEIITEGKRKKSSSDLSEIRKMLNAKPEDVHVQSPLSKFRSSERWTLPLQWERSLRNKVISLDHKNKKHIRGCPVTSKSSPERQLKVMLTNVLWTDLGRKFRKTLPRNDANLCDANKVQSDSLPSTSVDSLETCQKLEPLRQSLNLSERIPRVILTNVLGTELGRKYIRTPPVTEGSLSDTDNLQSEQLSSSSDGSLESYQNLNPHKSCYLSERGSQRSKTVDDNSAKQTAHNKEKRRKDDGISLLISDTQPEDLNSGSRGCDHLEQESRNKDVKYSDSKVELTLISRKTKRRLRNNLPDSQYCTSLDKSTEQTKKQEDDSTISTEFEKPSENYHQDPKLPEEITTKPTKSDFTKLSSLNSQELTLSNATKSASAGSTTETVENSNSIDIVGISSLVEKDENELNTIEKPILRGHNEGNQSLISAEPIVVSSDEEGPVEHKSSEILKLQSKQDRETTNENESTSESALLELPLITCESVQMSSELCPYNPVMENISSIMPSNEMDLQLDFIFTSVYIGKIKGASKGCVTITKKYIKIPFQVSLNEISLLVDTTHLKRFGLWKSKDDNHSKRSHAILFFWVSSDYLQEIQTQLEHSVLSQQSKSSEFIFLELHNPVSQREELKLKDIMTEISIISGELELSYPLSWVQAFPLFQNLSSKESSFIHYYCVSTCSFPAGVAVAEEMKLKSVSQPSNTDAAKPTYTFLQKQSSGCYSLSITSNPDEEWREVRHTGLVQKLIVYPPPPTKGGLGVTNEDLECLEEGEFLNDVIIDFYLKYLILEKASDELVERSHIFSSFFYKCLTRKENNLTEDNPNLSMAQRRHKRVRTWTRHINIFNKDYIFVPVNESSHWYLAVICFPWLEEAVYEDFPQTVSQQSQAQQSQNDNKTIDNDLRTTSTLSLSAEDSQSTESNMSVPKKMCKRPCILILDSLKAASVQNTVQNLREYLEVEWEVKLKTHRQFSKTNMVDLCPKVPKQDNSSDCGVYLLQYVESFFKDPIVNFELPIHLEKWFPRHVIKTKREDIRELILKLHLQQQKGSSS

[3] = molecular target: T3, Sentrin-specific protease 6 (Homo sapiens, UniProt Q9GZR1); assay: inhibition of human SENP6 catalytic domain – biochemical, luminescence, set 2, SAR follow-up (AID 588598); format: functional
T3 sequence (Q9GZR1 whole entry): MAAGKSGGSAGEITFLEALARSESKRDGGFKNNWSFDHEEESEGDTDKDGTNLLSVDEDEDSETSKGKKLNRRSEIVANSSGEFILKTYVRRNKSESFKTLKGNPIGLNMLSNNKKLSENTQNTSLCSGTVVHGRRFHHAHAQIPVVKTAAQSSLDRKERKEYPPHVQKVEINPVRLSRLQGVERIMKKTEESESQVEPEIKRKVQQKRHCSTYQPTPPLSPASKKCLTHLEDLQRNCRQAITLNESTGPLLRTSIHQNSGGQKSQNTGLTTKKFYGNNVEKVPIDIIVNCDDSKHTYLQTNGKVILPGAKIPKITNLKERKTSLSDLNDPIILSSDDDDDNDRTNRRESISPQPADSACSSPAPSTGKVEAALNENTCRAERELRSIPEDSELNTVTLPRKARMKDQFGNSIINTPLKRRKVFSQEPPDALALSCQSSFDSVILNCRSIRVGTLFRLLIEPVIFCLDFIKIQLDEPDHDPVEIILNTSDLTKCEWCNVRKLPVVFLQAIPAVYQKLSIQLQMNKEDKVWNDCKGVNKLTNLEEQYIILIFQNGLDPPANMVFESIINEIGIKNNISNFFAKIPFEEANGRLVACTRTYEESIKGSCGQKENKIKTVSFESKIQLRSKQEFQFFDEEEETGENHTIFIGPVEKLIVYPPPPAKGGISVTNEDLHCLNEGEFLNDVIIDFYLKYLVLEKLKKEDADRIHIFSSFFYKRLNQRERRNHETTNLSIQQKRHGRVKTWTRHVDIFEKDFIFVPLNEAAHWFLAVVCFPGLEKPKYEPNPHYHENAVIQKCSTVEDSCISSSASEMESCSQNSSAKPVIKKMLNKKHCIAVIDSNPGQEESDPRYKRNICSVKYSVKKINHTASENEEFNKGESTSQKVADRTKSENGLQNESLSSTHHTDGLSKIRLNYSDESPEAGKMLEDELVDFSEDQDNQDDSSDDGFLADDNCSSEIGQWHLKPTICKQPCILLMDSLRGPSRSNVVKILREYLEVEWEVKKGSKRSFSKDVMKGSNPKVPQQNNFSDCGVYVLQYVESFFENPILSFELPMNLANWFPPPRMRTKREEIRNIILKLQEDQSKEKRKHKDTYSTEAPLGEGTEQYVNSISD

Caspase-3 = molecular target: T4, Caspase-3 (Homo sapiens, UniProt P42574); assay: inhibition of recombinant caspase-3 activity – biochemical, luminescence, set 2, selectivity assay for SENP protease inhibitor project, SAR follow-up (AID 588599); format: functional
T4 sequence (P42574 whole entry): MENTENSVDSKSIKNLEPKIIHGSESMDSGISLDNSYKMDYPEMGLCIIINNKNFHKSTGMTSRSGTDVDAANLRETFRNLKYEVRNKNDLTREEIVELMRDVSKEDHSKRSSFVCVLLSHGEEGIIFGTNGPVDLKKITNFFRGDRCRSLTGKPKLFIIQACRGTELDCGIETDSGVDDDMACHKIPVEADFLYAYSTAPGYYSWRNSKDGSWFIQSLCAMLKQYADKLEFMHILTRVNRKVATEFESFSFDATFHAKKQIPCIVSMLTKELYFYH

HEK293 [4] = assay: membrane integrity loss in HEK cells – cell-based, fluorescence, cytotoxicity control for IDE activator project, dose response (AID 588440); format: functional; conditions: Homo sapiens;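 further: cytotoxicity by LDH release measuring loss of membrane integrity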
Insulin-degrading enzyme [5] = molecular target: T5, Insulin-degrading enzyme (Homo sapiens, UniProt P14735); assay: cellular IDE activation of Abeta substrate cleavage – fluorescence polarization, HEK cells, dose response (AID 588439); format: functional, cell-based
T5 sequence (P14735 whole entry): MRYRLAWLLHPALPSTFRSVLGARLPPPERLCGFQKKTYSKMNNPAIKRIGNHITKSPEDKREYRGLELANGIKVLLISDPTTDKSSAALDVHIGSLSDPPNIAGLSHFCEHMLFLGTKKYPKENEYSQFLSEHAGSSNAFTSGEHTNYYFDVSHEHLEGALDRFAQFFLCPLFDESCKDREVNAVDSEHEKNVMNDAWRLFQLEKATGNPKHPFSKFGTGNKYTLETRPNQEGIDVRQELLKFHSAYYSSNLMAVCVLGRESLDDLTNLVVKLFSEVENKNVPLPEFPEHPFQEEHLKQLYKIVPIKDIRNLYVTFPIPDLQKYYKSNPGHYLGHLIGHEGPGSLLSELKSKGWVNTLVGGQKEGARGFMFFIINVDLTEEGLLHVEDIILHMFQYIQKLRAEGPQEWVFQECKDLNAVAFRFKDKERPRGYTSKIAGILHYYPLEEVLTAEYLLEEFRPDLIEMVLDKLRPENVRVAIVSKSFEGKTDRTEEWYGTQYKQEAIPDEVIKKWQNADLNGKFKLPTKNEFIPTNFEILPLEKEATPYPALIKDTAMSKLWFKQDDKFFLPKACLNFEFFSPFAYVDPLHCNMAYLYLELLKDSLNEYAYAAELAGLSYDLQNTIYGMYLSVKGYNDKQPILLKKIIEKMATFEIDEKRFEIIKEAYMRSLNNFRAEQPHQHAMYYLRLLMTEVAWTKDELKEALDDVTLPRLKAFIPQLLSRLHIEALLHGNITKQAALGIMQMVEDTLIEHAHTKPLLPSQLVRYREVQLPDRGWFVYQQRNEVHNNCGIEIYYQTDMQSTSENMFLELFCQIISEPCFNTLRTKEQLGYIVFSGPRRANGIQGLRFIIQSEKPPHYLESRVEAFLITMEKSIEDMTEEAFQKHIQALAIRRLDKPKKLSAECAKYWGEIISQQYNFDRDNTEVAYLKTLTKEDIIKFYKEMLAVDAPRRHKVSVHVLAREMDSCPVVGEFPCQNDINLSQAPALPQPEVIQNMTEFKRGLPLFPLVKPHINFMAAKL

Insulin-degrading enzyme [6] = molecular target: T5, Insulin-degrading enzyme; assay: recombinant IDE activation, cell-free – biochemical, fluorescence polarization, counter-screen for IDE activator project, dose response (AID 588681)
HEK293 [7] = assay: optical interference in Abeta FP readout, dose response, artefact control for IDE activator project, biochemical, fluorescence polarization (AID 588442); format: functional, cell-based; conditions: Homo sapiens
[8] = molecular target: Apoptotic protease-activating factor 1 (Homo sapiens, UniProt O14727); assay: activation of Apaf-1 mediated apoptosis – fluorescent, uHTS hits, dose response (AID 588554); format: functional
[9] = molecular target: Induced myeloid leukemia cell differentiation protein Mcl-1 (Homo sapiens, UniProt Q07820); format: functional
[10] = molecular target: T6, Bifunctional protein GlmU (Mycobacterium tuberculosis, UniProt P9WMN3); assay: Inhibitors of Mycobacterial Glucosamine-1-phosphate acetyl transferase (GlmU). Secondary screen.; set-up: species or system Mycobacterium tuberculosis H37Rv
T6 sequence (P9WMN3 whole entry): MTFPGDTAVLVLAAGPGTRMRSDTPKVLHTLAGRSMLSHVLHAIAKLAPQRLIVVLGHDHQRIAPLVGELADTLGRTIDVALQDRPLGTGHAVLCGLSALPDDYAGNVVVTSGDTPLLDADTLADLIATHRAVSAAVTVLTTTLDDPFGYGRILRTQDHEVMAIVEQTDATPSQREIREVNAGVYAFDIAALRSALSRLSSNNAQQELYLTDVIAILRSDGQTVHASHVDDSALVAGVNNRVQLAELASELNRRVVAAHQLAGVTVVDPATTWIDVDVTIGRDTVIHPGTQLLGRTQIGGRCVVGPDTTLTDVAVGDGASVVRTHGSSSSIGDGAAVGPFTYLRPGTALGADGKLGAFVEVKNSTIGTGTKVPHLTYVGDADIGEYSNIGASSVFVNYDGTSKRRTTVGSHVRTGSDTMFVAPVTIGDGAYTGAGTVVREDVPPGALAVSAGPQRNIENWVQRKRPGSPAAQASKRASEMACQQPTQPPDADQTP

[11] = molecular target: T7, Beta-adrenergic receptor kinase 1 (Homo sapiens, UniProt P25098); assay: aptamer displacement from bead-bound GRK2 – biochemical, cherry pick 1, bead flow cytometry, dose response (AID 504500)
T7 sequence (P25098 whole entry): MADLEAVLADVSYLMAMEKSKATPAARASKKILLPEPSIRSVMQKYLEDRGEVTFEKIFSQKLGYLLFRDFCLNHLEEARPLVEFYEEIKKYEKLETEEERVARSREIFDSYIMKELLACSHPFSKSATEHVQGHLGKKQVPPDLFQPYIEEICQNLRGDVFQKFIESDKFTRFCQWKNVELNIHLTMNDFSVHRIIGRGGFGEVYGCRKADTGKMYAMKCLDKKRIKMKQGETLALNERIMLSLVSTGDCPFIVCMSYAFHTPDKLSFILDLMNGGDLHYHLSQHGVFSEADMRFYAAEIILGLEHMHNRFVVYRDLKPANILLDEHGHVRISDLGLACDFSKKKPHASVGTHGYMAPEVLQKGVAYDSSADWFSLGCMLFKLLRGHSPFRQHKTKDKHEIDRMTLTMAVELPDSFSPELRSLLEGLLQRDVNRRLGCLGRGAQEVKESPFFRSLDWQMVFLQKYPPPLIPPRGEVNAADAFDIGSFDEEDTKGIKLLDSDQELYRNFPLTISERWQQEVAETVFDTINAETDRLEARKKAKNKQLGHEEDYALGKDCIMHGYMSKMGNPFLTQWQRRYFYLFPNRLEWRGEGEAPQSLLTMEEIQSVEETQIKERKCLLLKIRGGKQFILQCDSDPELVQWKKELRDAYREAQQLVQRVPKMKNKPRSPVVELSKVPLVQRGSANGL

Chain of Cysteine protease ATG4B (Q9Y4P1 whole entry): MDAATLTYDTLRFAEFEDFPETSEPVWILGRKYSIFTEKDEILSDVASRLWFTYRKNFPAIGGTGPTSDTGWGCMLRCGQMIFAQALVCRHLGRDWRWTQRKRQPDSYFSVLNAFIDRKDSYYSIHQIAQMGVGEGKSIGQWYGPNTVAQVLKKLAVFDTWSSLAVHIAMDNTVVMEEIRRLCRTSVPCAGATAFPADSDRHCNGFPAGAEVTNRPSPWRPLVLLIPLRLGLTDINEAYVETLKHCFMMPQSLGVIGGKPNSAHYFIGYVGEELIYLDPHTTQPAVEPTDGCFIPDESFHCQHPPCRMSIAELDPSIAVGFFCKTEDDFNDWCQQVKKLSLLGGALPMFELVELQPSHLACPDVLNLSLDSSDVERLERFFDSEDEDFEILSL
Chain of Phospholipase A2 (P04054 whole entry): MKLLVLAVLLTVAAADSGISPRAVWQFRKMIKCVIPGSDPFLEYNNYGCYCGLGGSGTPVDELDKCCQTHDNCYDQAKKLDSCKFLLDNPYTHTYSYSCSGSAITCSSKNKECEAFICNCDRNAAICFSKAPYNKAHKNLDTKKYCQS
Chain of Apoptotic protease-activating factor 1 (O14727 whole entry): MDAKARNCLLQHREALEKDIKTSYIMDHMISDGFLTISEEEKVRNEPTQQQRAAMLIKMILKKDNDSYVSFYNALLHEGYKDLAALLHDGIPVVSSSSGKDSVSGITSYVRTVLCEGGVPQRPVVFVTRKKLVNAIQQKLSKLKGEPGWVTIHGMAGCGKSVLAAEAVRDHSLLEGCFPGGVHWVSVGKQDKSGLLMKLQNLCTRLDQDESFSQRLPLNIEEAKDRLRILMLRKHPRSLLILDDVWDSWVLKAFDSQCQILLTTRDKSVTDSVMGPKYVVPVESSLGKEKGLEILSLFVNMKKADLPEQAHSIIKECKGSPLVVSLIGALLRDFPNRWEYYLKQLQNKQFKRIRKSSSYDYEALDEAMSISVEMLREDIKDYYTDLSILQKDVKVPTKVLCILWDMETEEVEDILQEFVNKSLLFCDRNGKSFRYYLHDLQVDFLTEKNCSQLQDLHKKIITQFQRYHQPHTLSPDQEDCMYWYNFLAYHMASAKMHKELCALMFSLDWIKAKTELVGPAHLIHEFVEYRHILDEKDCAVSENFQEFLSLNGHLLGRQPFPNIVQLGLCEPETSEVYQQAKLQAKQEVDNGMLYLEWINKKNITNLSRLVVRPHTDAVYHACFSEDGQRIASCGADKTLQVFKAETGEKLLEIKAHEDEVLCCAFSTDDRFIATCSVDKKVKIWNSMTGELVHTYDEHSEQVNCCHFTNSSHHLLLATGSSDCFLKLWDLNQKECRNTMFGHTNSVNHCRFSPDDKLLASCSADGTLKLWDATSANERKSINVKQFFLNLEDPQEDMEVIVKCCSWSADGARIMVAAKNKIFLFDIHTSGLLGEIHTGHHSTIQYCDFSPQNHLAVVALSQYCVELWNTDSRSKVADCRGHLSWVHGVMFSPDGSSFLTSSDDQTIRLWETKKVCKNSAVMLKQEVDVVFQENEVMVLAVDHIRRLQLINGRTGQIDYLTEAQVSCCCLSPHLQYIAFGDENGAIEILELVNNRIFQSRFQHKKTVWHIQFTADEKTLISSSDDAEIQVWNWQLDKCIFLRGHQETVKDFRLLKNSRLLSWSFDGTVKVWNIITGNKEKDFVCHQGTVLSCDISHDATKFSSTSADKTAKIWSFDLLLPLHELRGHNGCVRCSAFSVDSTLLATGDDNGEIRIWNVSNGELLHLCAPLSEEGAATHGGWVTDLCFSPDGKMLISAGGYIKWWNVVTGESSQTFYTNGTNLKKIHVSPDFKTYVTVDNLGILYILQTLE
Chain of Induced myeloid leukemia cell differentiation protein Mcl-1 (Q07820 whole entry): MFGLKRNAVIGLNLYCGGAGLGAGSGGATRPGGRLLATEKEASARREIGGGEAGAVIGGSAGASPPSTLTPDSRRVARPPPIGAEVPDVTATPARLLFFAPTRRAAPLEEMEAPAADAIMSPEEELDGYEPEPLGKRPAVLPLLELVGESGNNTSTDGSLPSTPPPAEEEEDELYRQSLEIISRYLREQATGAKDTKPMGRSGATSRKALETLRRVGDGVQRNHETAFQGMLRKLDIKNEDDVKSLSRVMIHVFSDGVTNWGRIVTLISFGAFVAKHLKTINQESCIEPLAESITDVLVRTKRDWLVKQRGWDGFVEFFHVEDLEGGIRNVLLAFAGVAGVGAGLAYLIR

With `O=C(Nc1c(Cl)cccc1Cl)c1cc(-c2ccco2)on1` the IC50 (Phospholipase A2) was 6.14 µM (active) and the IC50 (Cysteine protease ATG4B) was 13.2 µM (active).
For `Cc1[nH]c2ccccc2c1C(=O)C(=O)NCc1cc(-c2cc3ccccc3o2)on1`, the IC50 [1] was > 99 µM (inactive), the IC50 [2] was > 99 µM (inactive) and the IC50 [3] was > 99 µM (inactive). For the same compound, the IC50 (Caspase-3) was > 99 µM (inactive).
In the case of `CCN(CC)CCNC(=O)C[S+]([O-])Cc1nc(-c2ccccc2Cl)oc1C` (stereo unspecified), the IC50 (HEK293 [4]) was > 89.2 µM (inactive), the EC50 (Insulin-degrading enzyme [5]) was > 54.7 µM (inactive) and the EC50 (Insulin-degrading enzyme [6]) was > 54.7 µM (inactive). The EC50 (HEK293 [7]) was > 55.9 µM (inactive).
In the case of `CCN(CC(=O)N1CCc2ccccc2C1)S(=O)(=O)c1ccc2ccccc2c1`, the IC50 (Phospholipase A2) was 4.17 µM (active) and the IC50 (Cysteine protease ATG4B) was 23.7 µM (inactive).
With `C=C(C)C(=O)Nc1cccc(C2=NOC3(C2)C[C@H](C(N)=O)N(C(=O)C(c2ccccc2)c2ccccc2)C3)c1` (stereo partly specified) the EC50 [8] was 11.4 µM (active), the IC50 [9] was 3.12 µM (active) and the IC50 [10] was 167 µM (active). The EC50 [11] was 85.9 µM (inactive).
